From ChEMBL document CHEMBL4831506, “Discovery of novel trimethoxyphenylbenzo[d]oxazoles as dual tubulin/PDE4 inhibitors capable of inducing apoptosis at G2/M phase arrest in glioma and lung cancer cells” (Eur J Med Chem, 2021)

Assays:
U-251 [1] = assay: Antiproliferative activity against human U-251 cells after 48 hrs by MTT assay; format: functional, cell-based; conditions: U-251, 48 h
A549 [2] = assay: Antiproliferative activity against human A549 cells after 48 hrs by MTT assay; format: functional, cell-based; conditions: A549, 48 h
MCF7 = assay: Antiproliferative activity against human MCF7 cells after 48 hrs by MTT assay; format: functional, cell-based; conditions: MCF7, 48 h
NCI-H460 = assay: Antiproliferative activity against human NCI-H460 cells after 48 hrs by MTT assay; format: functional, cell-based; conditions: NCI-H460, 48 h
[3] = biological target: 3',5'-cyclic-AMP phosphodiesterase 4C (Homo sapiens, UniProt Q08493); assay: Inhibition of PDE4 CAT (unknown origin)
Sus scrofa [4] = species on record: Sus scrofa; assay: Inhibition of pig brain tubulin polymerization at 10 uM by spectrometric method relative to control; format: tissue-based
A549 [5] = assay: Cell cycle arrest in human A549 cells assessed as G2/M phase at 500 nM measured after 24 hrs by propidium iodide staining based flow cytometry analysis (reference value: 6.08%); format: functional
U-251 [6] = assay: Cell cycle arrest in human U-251 cells assessed as G2/M phase at 200 nM measured after 24 hrs by propidium iodide staining based flow cytometry analysis (reference value: 14.43%); format: functional
U-251 [7] = assay: Cell cycle arrest in human U-251 cells assessed as G0/G1 phase at 200 nM measured after 24 hrs by propidium iodide staining based flow cytometry analysis (reference value: 67.34%); format: functional
U-251 [8] = assay: Induction of apoptosis in human U-251 cells assessed as increase in necrotic cells at 200 nM measured after 24 hrs by PI/FITC analysis (reference value: 0.301%); format: functional
A549 [9] = assay: Induction of apoptosis in human A549 cells assessed as increase in early apoptotic cells at 500 nM measured after 24 hrs by PI/FITC analysis (reference value: 0.955%); format: functional
U-251 [10] = assay: Induction of apoptosis in human U-251 cells assessed as increase in early apoptotic cells at 200 nM measured after 24 hrs by PI/FITC analysis (reference value: 1.12%); format: functional
Sus scrofa [11] = species on record: Sus scrofa; assay: Inhibition of pig brain tubulin polymerization at 1 uM by spectrometric method relative to control; format: tissue-based
U-251 [12] = assay: Cell cycle arrest in human U-251 cells assessed as S phase at 200 nM measured after 24 hrs by propidium iodide staining based flow cytometry analysis (reference value: 18.23%); format: functional
A549 [13] = assay: Cell cycle arrest in human A549 cells assessed as G0/G1 phase at 500 nM incubated for 24 hrs by propidium iodide staining based flow cytometry analysis (reference value: 79.14%); format: functional
U-251 [14] = assay: Induction of apoptosis in human U-251 cells assessed as increase in viable cells at 200 nM measured after 24 hrs by PI/FITC analysis (reference value: 98.3%); format: functional
A549 [15] = assay: Induction of apoptosis in human A549 cells assessed as increase in viable cells at 500 nM measured after 24 hrs by PI/FITC analysis (reference value: 98.4%); format: functional
U-251 [16] = assay: Induction of apoptosis in human U-251 cells assessed as increase in late apoptotic cells at 200 nM measured after 24 hrs by PI/FITC analysis (reference value: 0.311%); format: functional
A549 [17] = assay: Induction of apoptosis in human A549 cells assessed as increase in necrotic cells at 500 nM measured after 24 hrs by PI/FITC analysis (reference value: 0.365%); format: functional
A549 [18] = assay: Cell cycle arrest in human A549 cells assessed as S phase at 500 nM measured after 24 hrs by propidium iodide staining based flow cytometry analysis (reference value: 14.78%); format: functional

Chain of 3',5'-cyclic-AMP phosphodiesterase 4C (Q08493 whole entry): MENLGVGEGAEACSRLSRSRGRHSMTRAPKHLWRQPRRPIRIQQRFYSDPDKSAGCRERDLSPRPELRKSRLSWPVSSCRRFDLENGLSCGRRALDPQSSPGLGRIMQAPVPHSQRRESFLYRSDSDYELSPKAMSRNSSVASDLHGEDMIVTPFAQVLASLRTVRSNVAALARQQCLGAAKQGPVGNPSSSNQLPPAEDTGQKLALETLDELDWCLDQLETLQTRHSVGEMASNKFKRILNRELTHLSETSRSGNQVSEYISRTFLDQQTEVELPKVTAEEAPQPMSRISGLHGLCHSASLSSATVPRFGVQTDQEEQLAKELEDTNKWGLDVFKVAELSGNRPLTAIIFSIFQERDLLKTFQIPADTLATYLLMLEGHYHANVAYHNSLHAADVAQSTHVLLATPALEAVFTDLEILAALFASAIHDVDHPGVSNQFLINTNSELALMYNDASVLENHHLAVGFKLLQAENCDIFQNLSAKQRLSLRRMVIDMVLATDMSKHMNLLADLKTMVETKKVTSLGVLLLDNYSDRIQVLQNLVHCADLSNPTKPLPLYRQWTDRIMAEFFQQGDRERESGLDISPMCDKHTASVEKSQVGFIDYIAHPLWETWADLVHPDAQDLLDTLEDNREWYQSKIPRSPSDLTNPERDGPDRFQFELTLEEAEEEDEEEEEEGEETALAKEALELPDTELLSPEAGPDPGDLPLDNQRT

Compound | IC50 (U-251 [1]) | IC50 (A549 [2]) | IC50 (MCF7) | IC50 (NCI-H460) | other results
COc1cccc(-c2nc3cccc(-c4cc(OC)c(OC)c(OC)c4)c3o2)c1 | > 25 µM | 3.5 µM | > 25 µM | > 25 µM | 
COc1ccc(-c2nc3c(-c4cc(OC)c(OC)c(OC)c4)cccc3o2)cc1OC | > 25 µM | 20.1 µM | > 25 µM | 8.9 µM | 
COc1ccc(-c2nc3cccc(-c4cc(OC)c(OC)c(OC)c4)c3o2)cc1OC | 1.3 µM | 2.8 µM | > 25 µM | > 25 µM | 
COc1cc(-c2cccc3nc(-c4ccco4)oc23)cc(OC)c1OC | 10.6 µM | 10.3 µM | > 25 µM | 2.6 µM | IC50 [3]: 3.3 µM; inhibition (Sus scrofa [4]): 0%
COc1cc(-c2cccc3nc(-c4cccc(C)c4)oc23)cc(OC)c1OC | > 25 µM | 16.7 µM | > 25 µM | > 25 µM | 
COc1cc(OC)cc(-c2nc3c(-c4cc(OC)c(OC)c(OC)c4)cccc3o2)c1 | > 25 µM | 16.3 µM | > 25 µM | 5.7 µM | 
COc1cc(-c2cccc3nc(-c4ccc(C)cc4)oc23)cc(OC)c1OC | 3.2 µM | 0.68 µM | > 25 µM | 1.9 µM | inhibition (Sus scrofa [4]): 18%
COc1cc(-c2cccc3nc(-c4ccc(Br)cc4)oc23)cc(OC)c1OC | > 25 µM | > 25 µM | > 25 µM | > 25 µM | 
COc1ccc(/C=C\c2cc(OC)c(OC)c(OC)c2)cc1O [COMBRETASTATIN A4] | 0.13 µM | 0.6 µM | 0.42 µM | 0.076 µM | Activity (A549 [5]): 40.07%; Activity (U-251 [6]): 42.9%; Activity (U-251 [7]): 34.64%; inhibition (Sus scrofa [4]): 94%; Activity (U-251 [8]): 1.96%; Activity (A549 [9]): 10.1%; Activity (U-251 [10]): 4.02%; inhibition (Sus scrofa [11]): 52%; Activity (U-251 [12]): 22.47%; Activity (A549 [13]): 37.63%; Activity (U-251 [14]): 92.1%; Activity (A549 [15]): 77.9%; Activity (U-251 [16]): 11.9%; Activity (A549 [17]): 0.412%; Activity (A549 [18]): 22.31%
COc1cc(-c2cccc3nc(-c4ccc(F)cc4)oc23)cc(OC)c1OC | > 25 µM | 8.7 µM | > 25 µM | 8.7 µM | 
COc1cc(-c2cccc3nc(-c4ccc(N)cc4)oc23)cc(OC)c1OC | 1.04 µM | 0.72 µM | > 25 µM | 0.31 µM | inhibition (Sus scrofa [4]): 36%; inhibition (Sus scrofa [11]): 11%
COc1cc(-c2cccc3nc(-c4cccs4)oc23)cc(OC)c1OC | 3 µM | 12.5 µM | > 25 µM | 1.6 µM | IC50 [3]: 0.57 µM; inhibition (Sus scrofa [4]): 0%
COc1cc(-c2cccc3nc(-c4ccccc4)oc23)cc(OC)c1OC | 3.5 µM | 20.3 µM | > 25 µM | 6.8 µM | 
COc1cc(-c2cccc3nc(-c4ccc(Cl)cc4)oc23)cc(OC)c1OC | 1.6 µM | 5.6 µM | > 25 µM | > 25 µM | 
COc1cc(-c2cccc3nc(-c4cccc(N)c4)oc23)cc(OC)c1OC | 2.2 µM | 4.7 µM | > 25 µM | 2.6 µM | inhibition (Sus scrofa [4]): 19%; inhibition (Sus scrofa [11]): 14%
COc1ccc(-c2nc3cccc(-c4cc(OC)c(OC)c(OC)c4)c3o2)cc1F | 1.7 µM | 1.8 µM | > 25 µM | 2.8 µM | 
COc1cc(-c2cccc3nc(-c4cccc(Cl)c4)oc23)cc(OC)c1OC | 18.5 µM | > 25 µM | > 25 µM | > 25 µM | 
COc1cc(-c2cccc3oc(-c4ccc(Cl)cc4)nc23)cc(OC)c1OC | > 25 µM | > 25 µM | > 25 µM | 8.6 µM | 
COc1cc(-c2cccc3oc(-c4ccccc4)nc23)cc(OC)c1OC | > 25 µM | > 25 µM | > 25 µM | 9 µM | 
COc1cc(-c2cccc3oc(-c4ccc(C)cc4)nc23)cc(OC)c1OC | 16.2 µM | 20.2 µM | > 25 µM | 3.1 µM | 
COc1cc(-c2cccc3oc(-c4ccc(F)cc4)nc23)cc(OC)c1OC | > 25 µM | > 25 µM | > 25 µM | 22.1 µM | 
COc1cc(-c2cccc3oc(-c4cccc(F)c4)nc23)cc(OC)c1OC | > 25 µM | > 25 µM | > 25 µM | > 25 µM | 
COc1ccc(-c2cccc3nc(-c4ccc5cc[nH]c5c4)oc23)c(OC)c1OC | 9.5 µM | 9.6 µM | > 25 µM | > 25 µM | 
COc1cc(-c2cccc3nc(-c4cccc(Br)c4)oc23)cc(OC)c1OC | 6.8 µM | 2.1 µM | > 25 µM | 3.8 µM | 
COc1ccc(-c2nc3cccc(-c4cc(OC)c(OC)c(OC)c4)c3o2)cc1 | > 25 µM | 2.2 µM | > 25 µM | 3.5 µM | 
COc1ccc(-c2nc3c(-c4cc(OC)c(OC)c(OC)c4)cccc3o2)cc1F | 19.4 µM | > 25 µM | > 25 µM | 19.9 µM | 
COc1cc(-c2nc3cccc(-c4cc(OC)c(OC)c(OC)c4)c3o2)ccc1O | 10.3 µM | 15.7 µM | > 25 µM | 2 µM | 
COc1cc2c(c(OC)c1OC)-c1ccc(OC)c(=O)cc1[C@@H](NC(C)=O)CC2 [COLCHICINE] | 0.017 µM | 0.024 µM | 0.04 µM |  | 
COc1cc(-c2cccc3nc(-c4cccc(F)c4)oc23)cc(OC)c1OC | 2.9 µM | 2.6 µM | > 25 µM | 3.3 µM | 
